Reference: patent US20040053786A1, “Insecticidal 1,8-naphthalenedicarboxamides” (priority 2000, published 2004)

CNC(=O)c1cccc2cccc(NC(=O)c3cccs3)c12 [Compound 120, N-methyl 8-[(2-thienyl)carbonylamino]-1-naphthalenecarboxamide]
melting point: 215 °C
